{"source": "patent US8697385B1", "about": "“Protein controlling synthesis of collagen and associated methods” (Florida State University Research Foundation, Inc., priority 2009, dated 2014)", "key": {"lung fibroblasts": {"tested_on": "lung fibroblasts", "assay": "Apoptosis of primary lung fibroblasts", "assay_type": "cell-based", "conditions": "lung fibroblasts after ML-7 treatment; without treatment 2.2%", "source_text": "To assess the role of nonmuscle myosin in collagen synthesis, we disrupted nonmuscle myosin filaments in two different cell types: primary human lung fibroblasts and primary scleroderma skin fibroblasts. These cells are responsible for lung and skin fibrosis. […] To assess the effect of ML-7 on collagen protein synthesis and secretion, we analyzed the levels of collagen α1(I) and α2(I) polypeptides in the intracellularly space and in the medium using Western blot analysis and chain-specific antibodies.^12,15,31-33 ML-7 treatment profoundly affected the secretion of type I collagen, but the effect differed in the two types of primary fibroblasts. […] To assess if the secreted α1(I) polypeptides had been secreted as disulfide-bonded homotrimers, we performed Western blot analysis under nonreducing conditions (FIG. 3d). […] However, since α2(I) polypeptide was absent in the cell medium of ML-7-treated cells, the bands must represent disulfide-bonded collagen α1(I) chains. The α2(I) antibody could not recognize the polypeptide under nonreducing conditions, so we could not directly test its presence in S—S bonded collagen. Since there are reports that ML-7 can cause apoptosis of epithelial cells, we tested if ML-7 caused apoptosis of the primary fibroblasts. […] Therefore, we concluded that increased apoptosis is not responsible for the observed effects of ML-7. […]"}, "calnexin": {"tested_on": "calnexin", "assay": "Immunostaining for the ER marker protein calnexin", "assay_type": "cell-based", "conditions": "ML-7-treated cells vs control cells", "protocol": "Protein concentration was estimated by the Bradford assay, with bovine serum albumin as standard.^51 Western blot analyses of cellular proteins were performed using 50 μg of protein. For Western blot analysis of secreted proteins, equal numbers of cells were seeded, serum-free medium was added to the cells, and incubation continued for 3 h. The medium was collected, and an aliquot was analyzed directly by Western blot analysis. Use of serum free medium in collecting secreted proteins is essential because fetal calf serum contains substantial amounts of collagen and fibronectin.^15,31 For immunostaining, cells were seeded onto glass coverslips. […]\nTo assess the role of nonmuscle myosin in collagen synthesis, we disrupted nonmuscle myosin filaments in two different cell types: primary human lung fibroblasts and primary scleroderma skin fibroblasts. […] To assess the effect of ML-7 on collagen protein synthesis and secretion, we analyzed the levels of collagen α1(I) and α2(I) polypeptides in the intracellularly space and in the medium using Western blot analysis and chain-specific antibodies.^12,15,31-33 ML-7 treatment profoundly affected the secretion of type I collagen, but the effect differed in the two types of primary fibroblasts. […]"}}}
{"smiles": "O=S(=O)(c1cccc2c(I)cccc12)N1CCCNCC1", "note": "[ML-7]", "values": [{"measurement": "percentage of apoptotic cells", "setting": "lung fibroblasts", "value": 4.2, "unit": "%"}, {"measurement": "calnexin immunostaining (organization of the ER)", "setting": "calnexin", "value": "did not show a difference"}]}
